# Assay results from patent US12492188B2, “1H-benzo[D]imidazole derivatives as TLR9 inhibitors for the treatment of fibrosis” (BRISTOL-MYERS SQUIBB COMPANY, priority 2020, dated 2025).
# Where two headings read alike, the source gives them in different places.
# Tests used:
# Assay type in all cases: cell-based
# human TLR9 = biological target: T1, human TLR9 (Homo sapiens, UniProt Q9NR96); assay: TLR9 inhibition reporter assay (HEK-Blue cells, secreted embryonic alkaline phosphatase reporter)
# T1 construct: host or cells: HEK-Blue cells (HEK293-derived reporter line)
# T1 sequence (Q9NR96 26-1032): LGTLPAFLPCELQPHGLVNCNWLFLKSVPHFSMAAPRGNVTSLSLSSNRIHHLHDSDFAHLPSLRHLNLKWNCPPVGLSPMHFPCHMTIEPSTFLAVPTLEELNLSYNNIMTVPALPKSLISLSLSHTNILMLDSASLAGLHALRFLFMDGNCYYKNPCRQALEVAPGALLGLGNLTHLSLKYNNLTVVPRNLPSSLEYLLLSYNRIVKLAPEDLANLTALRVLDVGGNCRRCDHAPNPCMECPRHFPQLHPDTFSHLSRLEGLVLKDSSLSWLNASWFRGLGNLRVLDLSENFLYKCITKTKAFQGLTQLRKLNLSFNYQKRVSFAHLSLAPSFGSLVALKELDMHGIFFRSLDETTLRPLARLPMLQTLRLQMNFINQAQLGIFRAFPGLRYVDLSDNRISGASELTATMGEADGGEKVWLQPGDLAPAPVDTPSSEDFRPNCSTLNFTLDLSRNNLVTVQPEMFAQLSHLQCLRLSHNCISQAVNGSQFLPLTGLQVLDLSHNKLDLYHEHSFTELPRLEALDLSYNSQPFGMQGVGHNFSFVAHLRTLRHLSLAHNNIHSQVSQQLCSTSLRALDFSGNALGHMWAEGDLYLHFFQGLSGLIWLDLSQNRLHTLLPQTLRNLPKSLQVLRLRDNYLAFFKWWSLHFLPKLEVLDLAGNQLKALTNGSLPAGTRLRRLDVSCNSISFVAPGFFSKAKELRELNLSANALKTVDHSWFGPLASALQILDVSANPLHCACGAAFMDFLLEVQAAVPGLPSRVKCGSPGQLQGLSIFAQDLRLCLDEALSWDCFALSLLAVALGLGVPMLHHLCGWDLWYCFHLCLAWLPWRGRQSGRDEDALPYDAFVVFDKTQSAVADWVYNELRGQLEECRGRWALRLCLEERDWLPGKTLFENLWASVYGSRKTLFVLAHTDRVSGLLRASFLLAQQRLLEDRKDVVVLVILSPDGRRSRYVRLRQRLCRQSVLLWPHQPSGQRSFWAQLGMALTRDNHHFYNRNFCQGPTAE
# Summary of the method: (§1)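 Cells seeded at 15000 (TLR7), 20,000 (TLR8) or 25,000 (TLR9) per well; compound 0.05 nM–50 μM, 30 min RT pre-incubation. Agonists: gardiquimod 7.5 μM, R848 15.9 μM, ODN2006 5 nM respectively. 22 h, 37 °C; SEAP via HEK-Blue Detection; % inhibition vs agonist+DMSO and known-inhibitor wells.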
# human TLR7 = biological target: T2, human TLR7 (Homo sapiens, UniProt Q9NYK1); assay: TLR7 inhibition reporter assay (HEK-Blue cells, secreted embryonic alkaline phosphatase reporter); details: HEK-Blue cells overexpressing human TLR7, stimulated with gardiquimod 7.5 μM; read-out: TLR 7 IC50
# T2 construct: host or cells: HEK-Blue cells (HEK293-derived reporter line)
# T2 sequence (Q9NYK1 27-1049): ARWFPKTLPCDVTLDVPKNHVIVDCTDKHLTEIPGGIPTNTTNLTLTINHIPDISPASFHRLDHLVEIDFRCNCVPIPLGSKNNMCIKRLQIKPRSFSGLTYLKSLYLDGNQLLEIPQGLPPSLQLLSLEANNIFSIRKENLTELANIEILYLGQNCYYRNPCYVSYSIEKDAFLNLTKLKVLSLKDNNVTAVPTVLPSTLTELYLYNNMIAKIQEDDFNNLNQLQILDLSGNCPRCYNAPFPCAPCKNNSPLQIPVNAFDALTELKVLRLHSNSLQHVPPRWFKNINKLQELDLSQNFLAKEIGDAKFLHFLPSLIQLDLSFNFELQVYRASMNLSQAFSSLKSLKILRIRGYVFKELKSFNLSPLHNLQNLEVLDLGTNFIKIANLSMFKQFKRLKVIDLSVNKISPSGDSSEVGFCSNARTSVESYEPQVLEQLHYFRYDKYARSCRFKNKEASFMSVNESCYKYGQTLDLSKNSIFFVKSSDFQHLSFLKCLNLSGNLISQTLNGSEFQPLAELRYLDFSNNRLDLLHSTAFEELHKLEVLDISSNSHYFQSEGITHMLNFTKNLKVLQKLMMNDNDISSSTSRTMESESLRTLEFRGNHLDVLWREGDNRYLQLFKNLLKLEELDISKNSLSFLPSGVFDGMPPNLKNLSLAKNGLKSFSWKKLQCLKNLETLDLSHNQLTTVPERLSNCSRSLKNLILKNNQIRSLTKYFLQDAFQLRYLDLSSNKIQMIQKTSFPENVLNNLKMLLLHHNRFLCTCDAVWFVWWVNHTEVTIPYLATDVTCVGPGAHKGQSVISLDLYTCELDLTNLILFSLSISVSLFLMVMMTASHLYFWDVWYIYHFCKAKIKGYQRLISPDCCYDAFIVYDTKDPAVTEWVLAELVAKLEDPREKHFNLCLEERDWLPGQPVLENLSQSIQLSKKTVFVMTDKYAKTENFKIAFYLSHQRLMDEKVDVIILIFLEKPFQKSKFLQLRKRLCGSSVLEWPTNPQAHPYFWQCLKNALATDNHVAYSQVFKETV
# Summary of the method: as §1
# human TLR8 = biological target: T3, human TLR8 (Homo sapiens, UniProt Q9NR97); assay: TLR8 inhibition reporter assay (HEK-Blue cells, secreted embryonic alkaline phosphatase reporter); details: HEK-Blue cells overexpressing human TLR8, stimulated with R848 15.9 μM; read-out: TLR 8 IC50
# T3 construct: host or cells: HEK-Blue cells (HEK293-derived reporter line)
# T3 sequence (Q9NR97 27-1041): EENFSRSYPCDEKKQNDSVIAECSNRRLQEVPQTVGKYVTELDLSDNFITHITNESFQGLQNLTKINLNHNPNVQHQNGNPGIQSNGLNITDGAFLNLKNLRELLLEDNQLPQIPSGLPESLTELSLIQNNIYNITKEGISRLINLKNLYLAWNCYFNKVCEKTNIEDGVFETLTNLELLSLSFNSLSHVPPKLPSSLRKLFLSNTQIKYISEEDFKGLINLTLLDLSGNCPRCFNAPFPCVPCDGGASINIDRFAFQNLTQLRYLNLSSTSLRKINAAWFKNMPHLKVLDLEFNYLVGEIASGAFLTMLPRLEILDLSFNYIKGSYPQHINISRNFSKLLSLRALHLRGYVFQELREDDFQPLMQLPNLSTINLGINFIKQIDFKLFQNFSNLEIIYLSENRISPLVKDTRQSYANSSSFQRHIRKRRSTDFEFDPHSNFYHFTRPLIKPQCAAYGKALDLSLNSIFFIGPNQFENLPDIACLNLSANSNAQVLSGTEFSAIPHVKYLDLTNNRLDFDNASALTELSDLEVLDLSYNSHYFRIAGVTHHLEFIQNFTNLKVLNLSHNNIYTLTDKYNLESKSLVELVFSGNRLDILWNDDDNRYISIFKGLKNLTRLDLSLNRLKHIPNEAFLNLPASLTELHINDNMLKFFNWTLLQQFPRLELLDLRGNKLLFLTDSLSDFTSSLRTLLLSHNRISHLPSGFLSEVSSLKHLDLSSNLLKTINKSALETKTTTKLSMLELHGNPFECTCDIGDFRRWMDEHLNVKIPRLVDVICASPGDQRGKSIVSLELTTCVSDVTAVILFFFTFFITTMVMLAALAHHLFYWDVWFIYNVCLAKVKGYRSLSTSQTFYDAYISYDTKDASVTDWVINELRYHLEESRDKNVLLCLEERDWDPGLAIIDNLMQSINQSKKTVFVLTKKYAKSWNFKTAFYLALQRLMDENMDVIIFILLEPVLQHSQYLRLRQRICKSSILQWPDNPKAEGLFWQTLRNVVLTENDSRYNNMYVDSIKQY
# Summary of the method: as §1
# [1] = HEK-Blue cells overexpressing human TLR9, stimulated with ODN2006 5 nM, read-out: TLR 9 IC50
# [2] = HEK-Blue cells overexpressing human TLR9, stimulated with ODN2006 5 nM, 22 hour incubation, reporter readout
SMILES,IC50 (human TLR9; [1]) [nM],IC50 (human TLR9; HEK-Blue human TLR9 reporter cells) [nM],IC50 (human TLR7) [nM],IC50 (human TLR8) [nM],IC50 (human TLR9) [nM],IC50 (human TLR9; [2]) [nM]
"CS(=O)(=O)c1ccc(-c2nc3c(F)cc(C4CCN(C5CC6CCC(C5)N6C5CCC5)CC4)cc3n2C2CC2)cc1 (single isomer, unassigned) [Example 326, 6-(1-(8-cyclobutyl-8-azabicyclo[3.2.1]octan-3-yl)piperidin-4-yl)-1-cyclopropyl-4-fluoro-2-(4-(methylsulfonyl)phenyl)-1H-benzo[d]imidazole]",23,23,1300,> 50000,–,–
"Cn1c(-c2ccc(S(C)(=O)=O)cc2)nc2cc(C3CCN(C4CC5CCC(C4)N5C4COC4)CC3)cc(F)c21 (single isomer, unassigned) [Example 213, 7-fluoro-1-methyl-2-(4-(methylsulfonyl)phenyl)-5-(1-(8-(oxetan-3-yl)-8-azabicyclo[3.2.1]octan-3-yl)piperidin-4-yl)-1H-benzo[d]imidazole]",335,–,> 50000,> 50000,340,–
"COc1ccc(-c2nc3c(C)cc(C4CCN(C5CC6CCC(C5)N6C5CCOCC5)CC4)cc3n2C)cc1OC (single isomer, unassigned) [Example 167, 2-(3,4-dimethoxyphenyl)-1,4-dimethyl-6-(1-(8-(tetrahydro-2H-pyran-4-yl)-8-azabicyclo[3.2.1]octan-3-yl)piperidin-4-yl)-1H-benzo[d]imidazole]",788,–,> 25000,> 25000,790,–
"Cc1cc(-c2ccc(CN3CCC(N(C)C4CC4)CC3)c(F)c2)cc2c1nc(-c1ccc(S(C)(=O)=O)cc1)n2C [Example 394, N-cyclopropyl-1-(4-(1,4-dimethyl-2-(4-(methylsulfonyl)phenyl)-1H-benzo[d]imidazol-6-yl)-2-fluorobenzyl)-N-methylpiperidin-4-amine]",563,–,> 50000,5700,–,560
"CN(C)C1CCN(Cc2ccc(-c3ccc4nc(-c5ccccc5)n(C)c4c3)cc2)CC1 [Example 374, N,N-dimethyl-1-(4-(1-methyl-2-phenyl-1H-benzo[d]imidazol-6-yl)benzyl)piperidin-4-amine]",279,–,800,> 50000,–,280
"COc1ccc(-c2nc3c(C)cc(C4CCN(C5CCN(CC(C)C)CC5)CC4)cc3n2C)cc1F [Example 54, 2-(3-fluoro-4-methoxyphenyl)-6-(1′-isobutyl-[1,4′-bipiperidin]-4-yl)-1,4-dimethyl-1H-benzo[d]imidazole]",131,–,7700,> 50000,–,130
"Cn1c(-c2ccc(S(C)(=O)=O)cc2)nc2cc(F)c(C3CCN(C4CC5CCC(C4)N5C4COC4)CC3)cc21 (single isomer, unassigned) [Example 234, 5-fluoro-1-methyl-2-(4-(methylsulfonyl)phenyl)-6-(1-(8-(oxetan-3-yl)-8-azabicyclo[3.2.1]octan-3-yl)piperidin-4-yl)-1H-benzo[d]imidazole]",152,–,> 50000,> 50000,150,–
"CN(C)C1CCN(Cc2ccc(-c3ccc4nc(-c5ccc(F)cc5)n(C)c4c3)cc2)CC1 [Example 378, 1-(4-(2-(4-fluorophenyl)-1-methyl-1H-benzo[d]imidazol-6-yl)benzyl)-N,N-dimethylpiperidin-4-amine]",349,–,2200,17100,–,350
"Cn1c(-c2ccc(S(C)(=O)=O)cc2)nc2c(F)c(C3CCN(C4CC5CCC(C4)N5C4CCOCC4)CC3)ccc21 (stereo not shown) [Example 198, 4-fluoro-1-methyl-2-(4-(methylsulfonyl)phenyl)-5-(1-(8-(tetrahydro-2H-pyran-4-yl)-8-azabicyclo[3.2.1]octan-3-yl)piperidin-4-yl)-1H-benzo[d]imidazole]",57,–,> 50000,> 50000,57,–
"COc1ccc(-c2nc3cc(C4CCN(C5CCN(C(C)C)CC5)CC4)ccc3n2C)cc1OC [Example 5, 2-(3,4-dimethoxyphenyl)-5-(1′-isopropyl-[1,4′-bipiperidin]-4-yl)-1-methyl-1H-benzo[d]imidazole]",–,–,6800,840,–,250
"Cn1c(-c2ccc(S(C)(=O)=O)cc2)nc2cc(C3CCN(C4CCN(CC5COC5)CC4)CC3)cc(F)c21 [Example 204, 7-fluoro-1-methyl-2-(4-(methylsulfonyl)phenyl)-5-(1′-(oxetan-3-ylmethyl)-[1,4′-bipiperidin]-4-yl)-1H-benzo[d]imidazole]",781,–,> 50000,> 50000,780,–
